# Legend:
# Assay in all cases: Surface expression on monocytes (flow cytometry)
# Assay type in all cases: cell-based, Human
# [1] = system: CD80 expression on monocytes
# Method: (§1) In studies assessing the expression of CD80, CD86, and HLA-DR on purified monocytes (0.5×10^6 monocytes/well), monocytes were preincubated with or without TT (0.5 μg/ml) for 16 h. Following incubation with sCD26 (0.5 μg/ml) for 24 h, FITC-conjugated CD80, CD86, and HLA-DR mAbs (10 μg/ml) were used with PE-conjugated anti-CD14 (10 μg/ml) to gate exclusively on the monocyte population. In experiments assessing the effect of M6P on cellular uptake of sCD26, purified monocytes (0.5×10^6 monocytes/well) were incubated with the appropriate concentration of M6P in the presence or absence of sCD26-OG for 24 h in standard medium. Cells were then washed twice in ice-cold PBS, followed by incubation for 2 min in acidic PBS (pH 3.0) to strip any sCD26-OG attached to the cell surface. Cells were washed in ice-cold PBS and were incubated with mouse Ig isotypes (1 μg/ml) to block nonspecific binding; this was followed by reaction with PE-conjugated anti-CD14 (10 μg/ml) to gate exclusively on monocyte population.
# (§2) Flow cytometric analysis of 10,000 viable cells was conducted on FACSCalibur (BD Biosciences, Mountain View, Calif.). Each experiment was repeated at least three times, and the results were provided in the form of a histogram of a representative experiment, or increased mean percent±SE fluorescent intensity compared with control or untreated cells.
# [2] = system: CD86 expression on monocytes
# Method: as §1, §2
# [3] = system: HLA-DR expression on monocytes
# Method: as §1, §2
substance,measurement,setting,value
TT: recall antigen tetanus toxoid,% Increase of CD80 expression on monocytes,[1],2.0 ± 0.4%
same,% Increase of CD86 expression on monocytes,[2],1.2 ± 2%
same,% Increase of HLA-DR expression on monocytes,[3],0.3 ± 0.2%
